One experiment has as its target T1, glucocorticoid receptor (Homo sapiens, UniProt P04150).
T1 construct: containing 50-200 ug of A549 cell extract and 1.86 nM [^3H]-dexamethasone; host or cells: A549 human lung epithelial cells (sonicated cell extract)
T1 sequence (P04150 1-777): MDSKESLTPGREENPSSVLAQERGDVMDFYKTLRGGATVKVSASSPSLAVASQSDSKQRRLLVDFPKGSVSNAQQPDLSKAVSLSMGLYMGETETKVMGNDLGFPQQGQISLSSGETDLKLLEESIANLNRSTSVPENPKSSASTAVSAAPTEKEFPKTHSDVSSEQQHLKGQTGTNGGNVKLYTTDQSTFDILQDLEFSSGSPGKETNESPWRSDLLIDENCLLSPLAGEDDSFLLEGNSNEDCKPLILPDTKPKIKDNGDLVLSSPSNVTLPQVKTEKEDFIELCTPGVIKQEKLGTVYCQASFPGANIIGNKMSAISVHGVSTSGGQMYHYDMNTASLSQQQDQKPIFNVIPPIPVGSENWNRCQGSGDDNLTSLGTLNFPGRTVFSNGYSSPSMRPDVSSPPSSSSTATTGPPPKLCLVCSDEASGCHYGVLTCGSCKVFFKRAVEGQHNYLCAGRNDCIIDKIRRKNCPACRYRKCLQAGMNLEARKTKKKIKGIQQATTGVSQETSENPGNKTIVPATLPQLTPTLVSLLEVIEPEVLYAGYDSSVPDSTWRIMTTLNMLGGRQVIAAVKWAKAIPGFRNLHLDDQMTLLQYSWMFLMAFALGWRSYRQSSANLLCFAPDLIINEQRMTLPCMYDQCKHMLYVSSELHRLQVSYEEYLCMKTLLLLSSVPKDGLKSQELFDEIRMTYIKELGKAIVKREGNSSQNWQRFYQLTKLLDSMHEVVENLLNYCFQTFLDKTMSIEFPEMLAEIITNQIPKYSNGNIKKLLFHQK
Put plainly: Glucocorticoid Receptor Binding Assay ([3H]-dexamethasone, A549 cell extract). To be noted: [3H]-dexamethasone binding, read-out: GR Ki. The method, boiled down:
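Displacement of [3H]-dexamethasone (1.86 nM) from glucocorticoid receptor in sonicated A549 lung epithelial cell extracts, 16 h at 4 °C, pH 7.2 molybdate-containing buffer. Bound radioactivity was scintillation-counted after charcoal/dextran stripping of free ligand.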

A further experiment addresses T2, human MR (Homo sapiens, UniProt P08235).
T2 construct: The full length human MR gene is cloned from a human kidney or human brain cDNA library; His tag from the pAcHLT vector (own knowledge); made in house; host or cells: Sf9 insect cells (baculovirus, pAcHLT transfer vector)
T2 sequence (P08235 1-984): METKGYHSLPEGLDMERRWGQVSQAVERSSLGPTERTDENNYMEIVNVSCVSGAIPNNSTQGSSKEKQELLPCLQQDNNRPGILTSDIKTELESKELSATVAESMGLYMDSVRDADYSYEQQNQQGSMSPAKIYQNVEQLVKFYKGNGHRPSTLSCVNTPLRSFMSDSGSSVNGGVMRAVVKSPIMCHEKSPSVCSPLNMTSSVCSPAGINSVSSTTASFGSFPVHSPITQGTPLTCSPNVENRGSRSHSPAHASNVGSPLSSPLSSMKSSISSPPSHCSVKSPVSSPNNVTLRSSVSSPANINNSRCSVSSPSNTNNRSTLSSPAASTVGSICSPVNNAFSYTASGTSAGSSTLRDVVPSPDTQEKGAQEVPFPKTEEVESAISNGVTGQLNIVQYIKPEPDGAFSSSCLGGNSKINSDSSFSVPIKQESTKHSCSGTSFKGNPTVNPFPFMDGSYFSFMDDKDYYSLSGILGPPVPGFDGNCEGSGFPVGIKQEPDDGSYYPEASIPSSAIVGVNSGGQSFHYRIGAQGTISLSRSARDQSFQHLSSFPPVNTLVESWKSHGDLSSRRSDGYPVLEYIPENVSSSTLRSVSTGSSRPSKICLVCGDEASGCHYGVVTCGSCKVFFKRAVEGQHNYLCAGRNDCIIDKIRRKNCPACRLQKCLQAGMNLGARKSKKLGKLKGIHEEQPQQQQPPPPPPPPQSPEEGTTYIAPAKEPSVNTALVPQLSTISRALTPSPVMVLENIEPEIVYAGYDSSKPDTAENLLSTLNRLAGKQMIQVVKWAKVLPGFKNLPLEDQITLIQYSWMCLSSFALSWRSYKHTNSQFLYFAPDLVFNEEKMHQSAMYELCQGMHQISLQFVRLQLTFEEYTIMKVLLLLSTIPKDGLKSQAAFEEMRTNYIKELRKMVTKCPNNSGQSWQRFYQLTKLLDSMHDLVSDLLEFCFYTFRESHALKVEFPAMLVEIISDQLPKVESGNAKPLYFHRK
Put plainly: Mineralocorticoid Receptor Binding Assay ([3H]-aldosterone). To be noted: [3H]-aldosterone binding, human MR expressed in Sf9 cells; read-out: MR Ki. An outline of the steps: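 Receptor source: freeze-thaw lysate of baculovirus-infected Sf9 cells carrying full-length human MR, 20-25 μg protein. Incubation ~16 h at 4 °C with shaking, pH 7.5 buffer containing 30 mM sodium molybdate and 10% glycerol.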

Structures are written as SMILES.

Usually Ki stands for a measure of affinity in units of concentration, obtained from inhibition or displacement. In the case of `Cc1ccc2c(c1)OCc1ccccc1/C2=C/c1cccc(NS(C)(=O)=O)c1` [Example 675], the inhibitory constant (Ki) at glucocorticoid receptor and at human MR was less than 500 nM throughout.

As for `COc1cccc2c1[C@H](Cc1cccc(NS(C)(=O)=O)c1)c1ccccc1OC2` [Example 737], the Ki at glucocorticoid receptor and on human MR was less than 500 nM in each case.

In the case of `C/C(=C1/c2ccc(F)cc2CCc2ncccc21)c1cc(F)cc(NS(C)(=O)=O)c1` [Example 836], the Ki at glucocorticoid receptor and at human MR was less than 500 nM throughout.

Take `C/C(=C1\c2ccccc2COc2cc(F)ccc21)c1cccc(NS(C)(=O)=O)c1` [Example 808]: the Ki at glucocorticoid receptor and at human MR was less than 500 nM throughout.

As to `CN1Cc2ccccc2C(=Cc2cccc(NS(C)(=O)=O)c2)c2ccccc21` [Example 653], the Ki at glucocorticoid receptor was less than 1000 nM; on human MR, less than 500 nM.

Take `O=c1[nH]c2cc(C=C3c4ccccc4[C@H]4C[C@H]4c4ccccc43)ccc2o1` [Example 606]: the Ki on glucocorticoid receptor and on human MR was less than 500 nM each time.

As for `O=c1[nH]c2cc(/C=C3\c4ccccc4COc4cc(F)ccc43)ccc2n1CCCN1CCOCC1` [Example 608, 5-(3-fluoro-6H-dibenzo[b,e]oxepin-11-ylidenemethyl)-1-(3-morpholin-4-yl-propyl)-1,3-dihydro-benzoimidazol-2-one], the results for the Ki at glucocorticoid receptor and on human MR were less than 10000 nM and less than 500 nM, respectively.

With `CS(=O)(=O)Nc1ccc(C=C2c3ccccc3CCc3sccc32)cc1` [Example 495], the inhibition constant Ki at glucocorticoid receptor and on human MR was less than 500 nM each time.

With `O=C1Nc2ccccc2C(=Cc2cccc(Cl)c2)c2ccccc21` (mixture of isomers) [Example 649], the results for the inhibitory constant (Ki) at glucocorticoid receptor and at human MR were less than 10000 nM and less than 500 nM, respectively.

With `CCS(=O)(=O)Nc1cccc(C=C2c3ccccc3CCc3cc(OC)ccc32)c1` (mixture of isomers) [Example 163, Ethanesulfonic acid [3-(2-methoxy-10,11-dihydro-dibenzo[a,d]cyclohepten-5-ylidenemethyl)-phenyl]-amide], the inhibitory constant (Ki) at glucocorticoid receptor and at human MR was less than 500 nM in each case.

Take `CN(C)S(=O)(=O)c1ccccc1C=C1c2ccccc2CCc2ccccc21` [Example 5, 2-(10,11-Dihydro-dibenzo[a,d]cyclohepten-5-ylidenemethyl)-N,N-dimethyl-benzenesulfonamide]: the inhibition constant Ki on glucocorticoid receptor and on human MR was less than 500 nM in each case.

Turning to `C(=C1c2ccccc2CCc2ccccc21)c1cccc2[nH]ccc12` [Example 220, 4-(10,11-Dihydro-dibenzo[a,d]cyclohepten-5-ylidenemethyl)-1H-indole], the Ki on glucocorticoid receptor is less than 10000 nM; at human MR, less than 500 nM.

On to `O=C(Nc1cccc(/C=C2\c3ccccc3CCc3cc(Cl)ccc32)c1)C(F)(F)F` [Example 413], for which the inhibitory constant (Ki) at glucocorticoid receptor and on human MR was less than 500 nM each time.

On to `C/C(=C1\c2ccccc2COc2cc(OCC3CC3)ccc21)c1cccc(NS(C)(=O)=O)c1` [Example 813], for which the Ki at glucocorticoid receptor and on human MR was less than 500 nM in each case.

For `CN(C)S(=O)(=O)Nc1cccc(C=C2c3ccccc3CCc3ccccc32)c1` [Example 112, Dimethylsulfamic acid [3-(10,11-dihydro-dibenzo[a,d]cyclohepten-5-ylidenemethyl)-phenyl]-amide], the inhibitory constant (Ki) at glucocorticoid receptor and at human MR was less than 500 nM throughout.

Take `CNc1ccccc1C=C1c2ccccc2CCc2ccccc21` [Example 120, [2-(10,11-Dihydro-dibenzo[a,d]cyclohepten-5-ylidenemethyl)-phenyl]-methyl-amine]: the Ki at glucocorticoid receptor is less than 10000 nM; on human MR, less than 500 nM.

As to `CS(=O)(=O)Nc1cccc(/C=C2/c3ccccc3CSc3cc(Cl)ccc32)c1` [Example 741], the Ki on glucocorticoid receptor and on human MR was less than 500 nM each time.

Consider `CS(=O)(=O)Nc1cncc(C=C2c3ccccc3CCc3ccccc32)n1` [Example 233, N-[6-(10,11-Dihydro-dibenzo[a,d]cyclohepten-5-ylidenemethyl)-pyrazin-2-yl]-methanesulfonamide], for which the inhibition constant (Ki) at glucocorticoid receptor is less than 10000 nM; at human MR, less than 500 nM.

As to `CS(=O)(=O)Nc1cc(F)cc(C=C2c3ccccc3CCc3ccccc32)c1` [Example 50, N-[3-(10,11-Dihydro-dibenzo[a,d]cyclohepten-5-ylidenemethyl)-5-fluoro-phenyl]-methanesulfonamide], the Ki on glucocorticoid receptor and on human MR was less than 500 nM each time.

As for `CN(c1cccc(C=C2c3ccccc3CCc3cc(Cl)ccc32)c1)S(C)(=O)=O` [Example 398], the Ki at glucocorticoid receptor and at human MR was less than 500 nM each time.

As for `COc1ccc2c(c1)CCc1cc(C)ccc1/C2=C\c1cccc(NS(C)(=O)=O)c1` [Example 423], the Ki on glucocorticoid receptor and on human MR was less than 500 nM each time.

Regarding `N#Cc1ccc2c(c1)CCc1ccccc1/C2=C/c1cccc(O)c1` [Example 340], the Ki on glucocorticoid receptor and on human MR was less than 500 nM throughout.

Turning to `COc1ccc(S(=O)(=O)Nc2cccc(C=C3c4ccccc4CCc4cc(Cl)ccc43)c2)cc1` [Example 293], the Ki on glucocorticoid receptor and at human MR was less than 500 nM throughout.

For `CC(C)CS(=O)(=O)Nc1cccc(C=C2c3ccccc3CCc3ccccc32)c1` [Example 110, 2-Methyl-propane-1-sulfonic acid [3-(10,11-dihydro-dibenzo[a,d]cyclohepten-5-ylidenemethyl)-phenyl]-amide], the Ki at glucocorticoid receptor and on human MR was less than 500 nM in each case.

In the case of `CS(=O)(=O)Nc1cccc(/C=C2\c3ccccc3CCc3cc(-c4ccccc4)ccc32)c1` [Example 308], the Ki at glucocorticoid receptor was less than 10000 nM; at human MR it was less than 500 nM.

For `CCC(=C1c2ccc(Cl)cc2CCc2cc(Cl)ccc21)c1cccc(NS(C)(=O)=O)c1` [Example 778], the Ki on glucocorticoid receptor and at human MR was less than 500 nM throughout.

In the case of `CS(=O)(=O)Nc1cccc(/C=C2\c3ccc(F)cc3COc3ccccc32)c1` [Example 723], the Ki on glucocorticoid receptor and on human MR was less than 500 nM throughout.

With `O=C1Nc2ccc(Cl)cc2C(=Cc2cccc(Cl)c2)c2ccccc21` (mixture of isomers) [Example 655], the Ki on glucocorticoid receptor and at human MR was less than 500 nM in each case.

As to `Fc1ccc2c(c1)CCc1ncccc1/C2=C\c1ccccc1F` [Example 582], the inhibition constant (Ki) is less than 10000 nM at glucocorticoid receptor and less than 500 nM at human MR.

For the molecule `CS(=O)(=O)Nc1cccc(/C=C2/c3ccccc3CCc3ccc(S(C)(=O)=O)cc32)c1` [Example 323], the Ki at glucocorticoid receptor and on human MR was less than 500 nM throughout.

With `O=S(=O)(Nc1cccc(/C=C2/c3ccccc3CCc3sccc32)c1)c1ccccc1` [Example 503], the Ki on glucocorticoid receptor and on human MR was less than 500 nM in each case.

These data come from patent US20060063759A1, “Tricyclic steroid hormone nuclear receptor modulators” (priority 2002, published 2006).
